Assay results as given in patent publication US4230719A, “Novel 2-[4-(3-methyl-2-thienyl)phenyl]propionic acid and pharmaceutically acceptable salt thereof and method for treating symptoms of inflammation and pain” (Toyama Chemical Co., Ltd., priority 1977, dated 1980).
Where two headings read alike, the source gives them in different places.

Assays:
[1] = tested on: threshold value of pain due to pressure stimuli (tail); conditions: for Analgesic effect: 100% = threshold raised by 160 g
Vascular permeability = Vascular permeability in mice (Whittle's method); type: in vivo, mouse (ddY strain, male); conditions: for Inhibition: dye leakage
Method: (i) Vascular permeability in mice (Whittle's method)
The test compound was orally administered to each ddY strain male mouse (weighing each about 20 g). After 20 minutes, 0.1 ml/10 g of a 4%(Wt/V) solution of Pontamine Sky Blue in physiological saline was intravenously injected and 10 minutes thereafter 0.1 ml/10 g of a 0.7%(V/V) solution of acetic acid in physiological saline was injected intraperitoneally. After 30 minutes, the mice were killed by suffocation with chloroform. After immediate laparotomy, the dye leaked into the peritoneal cavity was washed out with distilled water. The washings were made up with water to 30 ml and the absorbance at 620 mμ was measured. The amount of leaked dye per 20 g of mouse weight was compared.

[2] = tested on: Carrageenin-induced edema; assay: Carrageenin-induced edema; type: in vivo, rat (Donryu strain, male); conditions: Rattus norvegicus, po, mean in 5 hours, read-out: Inhibitory percent of swelling; for inhibition in vivo at 5 mg/kg: 5 mg/kg p.o.; for inhibition in vivo at 15 mg/kg: 15 mg/kg p.o.
Method: (iii) Carrageenin-induced edema
Each of the 6 Donryu strain male rats per group (each weighing about 140 g), which had been fasted overnight, was orally loaded with 4 ml of water and, after 30 minutes, the test compound was orally administered thereto. Thirty minutes thereafter, a 1%(Wt/V) solution of carrageenin in physiological saline was subcutaneously injected into the subplantar region of the left hind paw. At a time interval of one hour, starting from the end of the first hour till the end of the fifth hour after injection of carrageenin, the paw volume was measured by means of a manometer and pressure transducer. By comparison with the percent increase in swelling of the control group of rats to which a 0.5%(V/V) solution of Tween 80 had been administered, the mean inhibitory percent in 5 hours of swelling was calculated by the following equation: [formula]

[3] = tested on: phenylbenzoquinone writhing; assay: Analgesic activity, phenylbenzoquinone method in mouse; type: in vivo, mouse (ddY strain, male); conditions: for Frequency of writhing, mean ± S.E.: during 10 minutes; for ED50: mouse, read-out: ED50
Method: (i) Phenylbenzoquinone method in mouse
The test compound was orally administered to each ddY strain male mouse (weighing 22±2 g; 8 mice per group). […] The frequency of writhing during 10 minutes from 5-minutes after the injection of phenylbenzoquinone was measured and compared with that of a control group to which a 0.5% Tween 80 solution was administered. The percent inhibition was calculated by the following equation: [formula]

in vivo = conditions: rat, po
[4] = Mus musculus, po, 10 min, writhing, 40 mg/kg p.o.

| SMILES | inhibition in vivo at 5 mg/kg [2] [%] | Frequency of writhing, mean ± S.E. ([3]; 40 mg/kg p.o.) | inhibition in vivo at 40 mg/kg [3, 4] [%] | ED50 ([3]; po) [mg/kg] | inhibition in vivo at 15 mg/kg [2] [%] | other results |
| --- | --- | --- | --- | --- | --- | --- |
| CC(=O)Oc1ccccc1C(=O)O [Aspirin] |  |  |  |  |  | Analgesic effect ([1]; 200 mg/kg p.o.): 25%; Analgesic effect ([1]; 800 mg/kg p.o.): 53%; ED50 ([1]; Mus musculus, po): 710 mg/kg |
| CCc1ccsc1-c1ccc(C(C)C(=O)O)cc1 (stereo not shown) [Compound C1] | 9.3 | 23.1 ± 3.9 | 2.1 | > 50 |  | Dye leakage (P.S.B.) mean ± S.E. (Vascular permeability; 10 mg/kg p.o.): 316.9 ± 29.0 μg/20g; Dye leakage (P.S.B.) mean ± S.E. (Vascular permeability; 20 mg/kg p.o.): 245.9 ± 15.4 μg/20g; Inhibition (Vascular permeability; 10 mg/kg p.o.): 18.0%; Inhibition (Vascular permeability; 20 mg/kg p.o.): 36.4%; ED30 (Vascular permeability; po, mouse, read-out: ED30): 16 mg/kg; Frequency of writhing, mean ± S.E. ([3]; 10 mg/kg p.o.): 23.6 ± 5.0; Frequency of writhing, mean ± S.E. ([3]; 20 mg/kg p.o.): 23.7 ± 4.4; inhibition in vivo at 10 mg/kg ([3]; Mus musculus, po, 10 min, writhing, 10 mg/kg p.o., read-out: Inhibition): 0%; inhibition in vivo at 20 mg/kg ([3]; Mus musculus, po, 10 min, writhing, 20 mg/kg p.o., read-out: Inhibition): -0.4%; LD50 (in vivo): > 400 mg/kg |
| CCCc1ccsc1-c1ccc(C(C)C(=O)O)cc1 (stereo not shown) [Compound C4] | -7.2 | 24.0 ± 2.6 | -1.7 | > 50 | -2.7 |  |
| Cc1csc(-c2ccc(C(C)C(=O)O)cc2)c1 (stereo not shown) [Compound C5] |  | 23.4 ± 1.9 | 0.8 | > 50 |  | inhibition in vivo at 3 mg/kg ([2]; 3 mg/kg p.o.): -25.7%; inhibition in vivo at 10 mg/kg ([2]; 10 mg/kg p.o.): 0.7% |
| Cc1ccc(-c2ccc(C(C)C(=O)O)cc2)s1 (stereo not shown) [Compound C6] | 19.1 | 18.2 ± 2.8 | 22.9 | > 50 | 31.4 |  |
| Cc1cc(-c2ccc(C(C)C(=O)O)cc2)sc1C (stereo not shown) [Compound C7] | -21.6 | 19.1 ± 3.8 | 19.1 | > 50 | 15.1 |  |
